# Ends that are not written are not given here.
# Conditions: rat, in vivo
sequence,measurement,value
RHAYRSMAEWGFLYS [PGD3-4],Half-life,2.45 h
